Legend:
[1] = tested on: HCV replicon in human hepatoma Huh-7 cell line; experiment: Anti-HCV replicon assay (EC50, luciferase); type: cell-based; details: Hepatitis C virus, Huh-7, 72 h
Method in brief: (§1)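 Cytotoxicity (CC50) measured by CellTiter-Glo and antiviral activity (EC50) by luciferase signal from lysed cells, both by luminescence. Replicon-bearing Huh-7 cells, 6000 per well, incubated 3 days at 37 °C with threefold-diluted compound (0.5% DMSO for DMSO-dissolved compounds).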

[2] = CC50 assay (CellTiter-Glo) in Huh-7 HCV replicon cells; type: cell-based, human; details: human, 3 days incubation, CellTiter-Glo readout
Method in brief: as §1

| SMILES | EC50 [1] [µM] | CC50 at 3 days [2] [µM] |
| --- | --- | --- |
| N#Cc1ccc(-c2ccc3nc(NCc4ccc(S(N)(=O)=O)cc4)nc(NCC(F)(F)F)c3n2)cc1 [Example 212, 4-{[6-(4-Cyano-phenyl)-4-(2,2,2-trifluoro-ethylamino)-pyrido[3,2-d]pyrimidin-2-ylamino]-methyl}-benzenesulfonamide] | < 0.1 | 5 to 25 |
| NS(=O)(=O)c1ccc(CNc2nc(NCC(F)(F)F)c3nc(-c4ccc(F)c(S(=O)(=O)N[C@@H]5CCNC5)c4)ccc3n2)cc1 [Example 213, 2-Fluoro-N-pyrrolidin-3-yl-5-[2-(4-sulfamoyl-benzylamino)-4-(2,2,2-trifluoro-ethylamino)-pyrido[3,2-d]pyrimidin-6-yl]-benzenesulfonamide] | < 0.1 | < 5 |
| NS(=O)(=O)c1ccc(CNc2nc(NCC(F)(F)F)c3nc(-c4ccc(F)c(S(=O)(=O)NC5CCNCC5)c4)ccc3n2)cc1 [Example 214, 2-Fluoro-N-piperidin-4-yl-5-[2-(4-sulfamoyl-benzylamino)-4-(2,2,2-trifluoro-ethylamino)-pyrido[3,2-d]pyrimidin-6-yl]-benzenesulfonamide] | < 0.1 | 5 to 25 |
| CC(C)(C)OC(=O)N1CCC(NS(=O)(=O)c2cc(-c3ccc4nc(NCc5ccc(S(N)(=O)=O)cc5)nc(NCC(F)(F)F)c4n3)ccc2F)CC1 [Example 215, 4-{2-Fluoro-5-[2-(4-sulfamoyl-benzylamino)-4-(2,2,2-trifluoro-ethylamino)-pyrido[3,2-d]pyrimidin-6-yl]-benzenesulfonylamino}-piperidine-1-carboxylic acid tert-butyl ester] | < 0.1 | 5 to 25 |
| C[C@H](N)C(=O)Nc1ccc(-c2ccc3nc(NCc4ccc(S(N)(=O)=O)cc4)nc(NCC(F)(F)F)c3n2)cc1F [Example 216, 2-Amino-N-{2-fluoro-4-[2-(4-sulfamoyl-benzylamino)-4-(2,2,2-trifluoro-ethylamino)-pyrido[3,2-d]pyrimidin-6-yl]-phenyl}-propionamide] | < 0.1 | < 5 |
| NS(=O)(=O)c1ccc(CNc2nc(NCC(F)(F)F)c3nc(-c4ccc(F)c(S(=O)(=O)N5CCNCC5)c4)ccc3n2)cc1 [Example 217, 4-{[6-[4-Fluoro-3-(piperazine-1-sulfonyl)-phenyl]-4-(2,2,2-trifluoro-ethylamino)-pyrido[3,2-d]pyrimidin-2-ylamino]-methyl}-benzenesulfonamide] | < 0.1 | < 5 |
| CC(C)(C)OC(=O)N1CCN(S(=O)(=O)c2cc(-c3ccc4nc(NCc5ccc(S(N)(=O)=O)cc5)nc(NCC(F)(F)F)c4n3)ccc2F)CC1 [Example 218, 4-{2-Fluoro-5-[2-(4-sulfamoyl-benzylamino)-4-(2,2,2-trifluoro-ethylamino)-pyrido[3,2-d]pyrimidin-6-yl]-benzenesulfonyl}-piperazine-1-carboxylic acid tert-butyl ester] | < 0.1 | 5 to 25 |
| NS(=O)(=O)c1ccc(CNc2nc(NCC(F)(F)F)c3nc(-c4ccc(NC(=O)[C@H]5CCNC5)c(F)c4)ccc3n2)cc1 [Example 219, Pyrrolidine-3-carboxylic acid {2-fluoro-4-[2-(4-sulfamoyl-benzylamino)-4-(2,2,2-trifluoro-ethylamino)-pyrido[3,2-d]pyrimidin-6-yl]-phenyl}-amide] | < 0.1 | < 5 |
| C[C@@H](O)C(=O)Nc1ccc(-c2ccc3nc(NCc4ccc(S(N)(=O)=O)cc4)nc(NCC(F)(F)F)c3n2)cc1 [Example 220, 2-Hydroxy-N-{4-[2-(4-sulfamoyl-benzylamino)-4-(2,2,2-trifluoro-ethylamino)-pyrido[3,2-d]pyrimidin-6-yl]-phenyl}-propionamide] | < 0.1 | 5 to 25 |
| C[C@H](N)C(=O)Nc1ccc(-c2ccc3nc(NCc4ccc(S(N)(=O)=O)cc4)nc(NCC(F)(F)F)c3n2)cc1 [Example 221, 2-Amino-N-{4-[2-(4-sulfamoyl-benzylamino)-4-(2,2,2-trifluoro-ethylamino)-pyrido[3,2-d]pyrimidin-6-yl]-phenyl}-propionamide] | < 0.1 | > 25 |
| NS(=O)(=O)c1ccc(CNc2nc(NCC(F)(F)F)c3nc(-c4ccc(NC(=O)[C@H]5CCNC5)cc4)ccc3n2)cc1 [Example 222, Pyrrolidine-3-carboxylic acid {4-[2-(4-sulfamoyl-benzylamino)-4-(2,2,2-trifluoro-ethylamino)-pyrido[3,2-d]pyrimidin-6-yl]-phenyl}-amide] | < 0.1 | 5 to 25 |
| NS(=O)(=O)c1ccc(CNc2nc(NCC(F)(F)F)c3nc(-c4ccc(NC(=O)OCCN5CCCC5)cc4)ccc3n2)cc1 [Example 223, {4-[2-(4-Sulfamoyl-benzylamino)-4-(2,2,2-trifluoro-ethylamino)-pyrido[3,2-d]pyrimidin-6-yl]-phenyl}-carbamic acid 2-pyrrolidin-1-yl-ethyl ester] | < 0.1 | 5 to 25 |
| NS(=O)(=O)c1cc(-c2ccc3nc(NCc4ccc(F)cc4)nc(NCC(F)(F)F)c3n2)ccc1F [Example 224, 2-Fluoro-5-[2-(4-fluoro-benzylamino)-4-(2,2,2-trifluoro-ethylamino)-pyrido[3,2-d]pyrimidin-6-yl]-benzenesulfonamide] | < 0.1 | > 25 |
| NS(=O)(=O)c1ccc(CNc2nc(NCC(F)(F)F)c3nc(-c4ccc(F)c(S(N)(=O)=O)c4)ccc3n2)cc1 [Example 225, 2-Fluoro-5-[2-(4-sulfamoyl-benzylamino)-4-(2,2,2-trifluoro-ethylamino)-pyrido[3,2-d]pyrimidin-6-yl]-benzenesulfonamide] | < 0.1 | > 25 |
| CCOc1nc(NCc2ccc(S(N)(=O)=O)cc2)nc2ccc(-c3ccc(NC(=O)[C@@H](N)[C@H](C)O)cc3)nc12 [Example 226, 2-Amino-N-{4-[4-ethoxy-2-(4-sulfamoyl-benzylamino)-pyrido[3,2-d]pyrimidin-6-yl]-phenyl}-3-hydroxy-butyramide] | < 0.1 | > 25 |
| CCOc1nc(NCc2ccc(S(N)(=O)=O)cc2)nc2ccc(-c3ccc(N4CC(O)CC4=O)cc3)nc12 (stereo not shown) [Example 227, 4-({4-Ethoxy-6-[4-(4-hydroxy-2-oxo-pyrrolidin-1-yl)-phenyl]-pyrido[3,2-d]pyrimidin-2-ylamino}-methyl)-benzenesulfonamide] | < 0.1 | > 25 |
| NS(=O)(=O)c1ccc(CNc2nc(Nc3ccc(-n4cncn4)cc3)c3nc(-c4ccc(F)cc4)ccc3n2)cc1 [Example 228, 4-{[6-(4-Fluoro-phenyl)-4-(4-[1,2,4]triazol-1-yl-phenylamino)-pyrido[3,2-d]pyrimidin-2-ylamino]-methyl}-benzenesulfonamide] | < 0.1 | < 5 |
| NS(=O)(=O)c1ccc(CNc2nc(Nc3cccc(F)c3)c3nc(-c4ccc(F)cc4)ccc3n2)cc1 [Example 229, 4-{[6-(4-Fluoro-phenyl)-4-(3-fluoro-phenylamino)-pyrido[3,2-d]pyrimidin-2-ylamino]-methyl}-benzenesulfonamide] | < 0.1 | < 5 |
| CS(=O)(=O)Nc1cc(-c2ccc3nc(NCc4ccc(S(N)(=O)=O)cc4)nc(NCC(F)(F)F)c3n2)ccc1F [Example 230, 4-{[6-(4-Fluoro-3-methanesulfonylamino-phenyl)-4-(2,2,2-trifluoro-ethylamino)-pyrido[3,2-d]pyrimidin-2-ylamino]-methyl}-benzenesulfonamide] | < 0.1 | 5 to 25 |
| NS(=O)(=O)c1ccc(CNc2nc(NCC(F)(F)F)c3nc(-c4ccc(F)c(NS(=O)(=O)C5CC5)c4)ccc3n2)cc1 [Example 231, 4-{[6-(3-Cyclopropanesulfonylamino-4-fluoro-phenyl)-4-(2,2,2-trifluoro-ethylamino)-pyrido[3,2-d]pyrimidin-2-ylamino]-methyl}-benzenesulfonamide] | < 0.1 | > 25 |
| NS(=O)(=O)c1ccc(CNc2nc(NCC(F)(F)F)c3nc(-c4cccc(S(N)(=O)=O)c4)ccc3n2)cc1 [Example 232, 3-[2-(4-sulfamoyl-benzylamino)-4-(2,2,2-trifluoro-ethylamino)-pyrido[3,2-d]pyrimidin-6-yl]-benzenesulfonamide] | < 0.1 | > 25 |
| NS(=O)(=O)c1ccc(CNc2nc(NCC(F)(F)F)c3nc(-c4ccc(F)c(Cl)c4)ccc3n2)cc1 [Example 233, 4-{[6-(3-Chloro-4-fluoro-phenyl)-4-(2,2,2-trifluoro-ethylamino)-pyrido[3,2-d]pyrimidin-2-ylamino]-methyl}-benzenesulfonamide] | < 0.1 | 5 to 25 |
| NS(=O)(=O)c1ccc(CNc2nc(OC3CC3)c3nc(-c4ccc(F)cc4)ccc3n2)cc1 [Example 234, 4-{[4-Cyclopropoxy-6-(4-fluoro-phenyl)-pyrido[3,2-d]pyrimidin-2-ylamino]-methyl}-benzenesulfonamide] | < 0.1 | 5 to 25 |
| NS(=O)(=O)c1ccc(CNc2nc(Oc3cccc(F)c3)c3nc(-c4ccc(F)cc4)ccc3n2)cc1 [Example 235, 4-{[4-(3-Fluoro-phenoxy)-6-(4-fluoro-phenyl)-pyrido[3,2-d]pyrimidin-2-ylamino]-methyl}-benzenesulfonamide] | < 0.1 | 5 to 25 |
| COCCOc1nc(NCc2ccc(S(N)(=O)=O)cc2)nc2ccc(-c3ccc(F)c(Cl)c3)nc12 [Example 236, 4-{[6-(3-Chloro-4-fluoro-phenyl)-4-(2-methoxy-ethoxy)-pyrido[3,2-d]pyrimidin-2-ylamino]-methyl}-benzenesulfonamide] | < 0.1 | 5 to 25 |
| COCCOc1nc(NCc2ccc(S(N)(=O)=O)cc2)nc2ccc(-c3ccc(F)cc3)nc12 [Example 237, 4-{[6-(4-Fluoro-phenyl)-4-(2-methoxy-ethoxy)-pyrido[3,2-d]pyrimidin-2-ylamino]-methyl}-benzenesulfonamide] | < 0.1 | < 5 |
